The values that follow come from article PMC9414972, “α-Glucosidase and α-Amylase Inhibitory Potentials of Quinoline–1,3,4-oxadiazole Conjugates Bearing 1,2,3-Triazole with Antioxidant Activity, Kinetic Studies, and Computational Validation” (Pharmaceuticals, 2022).

pIC50: −log10 of the molar value. Read-outs that look alike come from different tables or passages of the source.

Series [1] can be described thus: Ferric reducing antioxidant power (FRAP). The procedure:
FRAP is a ferric (Fe^3+) to ferrous (Fe^2+) ions reduction assay that measures a compound’s electron-donating capacity, i.e., the antioxidant’s reducing power.
The mixture was incubated at 50 °C for 20 min, followed by acidification with 100 μL trichloroacetic acid (10%). After centrifugation at 3500 rpm for 10 min, 200 μL of the supernatant was transferred into another test tube containing 200 μL of distilled water and 0.8 mL of FeCl3 (0.1%). Finally, the absorbance was read at 700 nm, and the total reductive antioxidant power was calculated thus: Ferric reducing antioxidant power (%)=Absorbance of compound/Absorbance of 500µM gallic acid×100

The next series addresses T1, α-glucosidase (Saccharomyces cerevisiae, UniProt P38158).
T1 construct: purchased Merck
The series is described as follows: biochemical. As to the method: The α-glucosidase inhibitory activity was evaluated using a previous method with slight modifications.

For series [2], the target named is T2, porcine pancreatic amylase (Sus scrofa, UniProt P00690).
T2 construct: purchased Merck
T2 sequence (P00690 16-511): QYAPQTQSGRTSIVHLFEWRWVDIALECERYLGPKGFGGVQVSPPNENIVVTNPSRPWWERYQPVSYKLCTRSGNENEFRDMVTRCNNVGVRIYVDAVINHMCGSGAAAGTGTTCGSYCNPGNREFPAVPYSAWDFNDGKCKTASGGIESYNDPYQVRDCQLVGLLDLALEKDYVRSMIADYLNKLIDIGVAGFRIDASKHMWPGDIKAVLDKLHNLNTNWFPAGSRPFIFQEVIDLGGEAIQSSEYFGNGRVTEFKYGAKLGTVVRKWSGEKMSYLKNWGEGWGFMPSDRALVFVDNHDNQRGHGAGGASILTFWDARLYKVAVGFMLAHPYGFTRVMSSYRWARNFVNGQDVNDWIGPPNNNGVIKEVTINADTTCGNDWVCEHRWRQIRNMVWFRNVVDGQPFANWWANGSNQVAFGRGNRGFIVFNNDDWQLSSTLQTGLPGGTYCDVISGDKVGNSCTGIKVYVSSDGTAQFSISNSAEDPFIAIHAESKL
The series is described as follows: α-Amylase inhibitory activity (starch/DNS). The series is classed as biochemical. The procedure:
α-Amylase inhibitory activity was determined according to Ibitoye et al. with slight modifications. […] The reaction in the mixture was terminated with a 1 mL dinitrosalicylate reagent before boiling for 10 min. The cooled mixture was diluted with 5 mL distilled water, and the absorbance was read at 540 nm. The inhibitory activity was calculated using the formula below: % Inhibition=1−Absorbance of compound/Absorbance of control×100

A short description of series [3]: Nitric oxide (NO) scavenging activity. As to the method:
The screening of the present compound series for NO radical scavenging activity (Table 2) identified excellent NO scavengers.
The antioxidant capacity of the compounds to scavenge nitric oxide radicals was determined using a modified version of the protocol by Kurian et al.. Briefly, 250 μL of sodium nitroprusside (10 mM) prepared in sodium phosphate buffer (pH 7.4) was added to 500 μL of the compound solution (62.5–500 μM) or distilled water (control). The resulting solution was incubated at 37 °C for 2 h. Then, 250 μL of Griess reagent was added to the reaction mixture before the absorbance was measured at 546 nm. The nitric oxide scavenging activity of the compounds was calculated with the formula: Nitric oxide scavenging (%)=1−Absorbance of compound/Absorbance of control×100

Series [4] can be described thus: DPPH radical scavenging activity. As to the method:
The DPPH assay is used conventionally to quantify a compound’s ability to trap free radicals.
The compounds were evaluated for their ability to scavenge stable DPPH radicals, using a modification of the method by Turkoglu et al..
Background: DPPH is a stable violet radical that fades when it is reduced.

The mark [5] stands for this setting: ferric reducing antioxidant power.
[6] abbreviates: pNPG substrate, pH 6.8, 37 °C, read-out: IC50 α-Glucosidase.
The mark [7] stands for this setting: porcine pancreatic amylase, starch, pH 6.9, 25 °C, read-out: IC50 α-Amylase.
Setting [8] is: nitric oxide radical scavenging, 37 °C, 2 h.
The mark [9] stands for this setting: DPPH radical scavenging, 30 min, 25 °C.

T1 sequence (P38158 whole entry): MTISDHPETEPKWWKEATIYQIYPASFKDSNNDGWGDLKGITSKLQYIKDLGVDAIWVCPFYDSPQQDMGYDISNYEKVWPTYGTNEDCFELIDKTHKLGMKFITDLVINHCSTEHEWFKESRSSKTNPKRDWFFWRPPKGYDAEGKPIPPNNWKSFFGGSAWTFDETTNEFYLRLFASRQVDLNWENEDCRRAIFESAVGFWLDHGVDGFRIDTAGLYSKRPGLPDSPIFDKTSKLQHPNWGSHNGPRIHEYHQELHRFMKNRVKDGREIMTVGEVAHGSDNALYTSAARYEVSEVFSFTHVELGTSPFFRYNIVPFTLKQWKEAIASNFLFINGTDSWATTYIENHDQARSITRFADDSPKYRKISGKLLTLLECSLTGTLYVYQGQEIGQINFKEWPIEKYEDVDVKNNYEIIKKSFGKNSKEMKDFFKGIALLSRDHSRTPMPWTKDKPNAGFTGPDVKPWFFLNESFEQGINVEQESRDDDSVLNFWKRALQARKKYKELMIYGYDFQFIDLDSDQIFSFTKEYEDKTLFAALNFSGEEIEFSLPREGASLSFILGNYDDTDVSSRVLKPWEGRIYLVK

As a reminder, the pIC50 is −log10 of the IC50, conventionally taken in molar units. A word on the melting point: it is the temperature of the solid-liquid transition. As for `CCSc1nnc(COc2cccc3cccnc23)o1` [4a, 2-(Ethylthio)-5-[(quinolin-8-yloxy)methyl]-1,3,4-oxadiazole], the melting point is 80.7 to 83.1 °C. The compound also showed a pIC50 in series [1] (setting [5]) of less than 3.30. The pIC50 at α-glucosidase (setting [6]) was 4.38. The pIC50 in series [2] (setting [7]) is less than 3.30. The negative-log IC50 (pIC50) in series [3] (setting [8]) is 5.57. The compound also had a pIC50 in series [4] (setting [9]) of 4.15.

`CCCCSc1nnc(COc2cccc3cccnc23)o1` [4c, 2-(Butylthio)-5-[(quinolin-8-yloxy)methyl]-1,3,4-oxadiazole] came in with a melting point of 88.3 to 93.5 °C. This compound also had a pIC50 in series [1] (setting [5]) of less than 3.30. For the same compound, the pIC50 at α-glucosidase (setting [6]) is 4.38. The pIC50 in series [2] (setting [7]) is less than 3.30. This compound gave a pIC50 in series [3] (setting [8]) of less than 3.30. In series [4] (setting [9]), this compound showed a pIC50 of 4.10.

In the case of `CCCCCSc1nnc(COc2cccc3cccnc23)o1` [4d, 2-(Pentylthio)-5-[(quinolin-8-yloxy)methyl]-1,3,4-oxadiazole], the melting point lay in the range of 84.6 to 90.1 °C. In series [1] (setting [5]), the pIC50 is less than 3.30. The negative-log IC50 (pIC50) at α-glucosidase (setting [6]) was 4.33. The negative logarithm of the IC50 (pIC50) in series [2] (setting [7]) was less than 3.30. The same compound showed a pIC50 in series [3] (setting [8]) of 3.34. The compound further gave a pIC50 in series [4] (setting [9]) of 4.08.

As to `CCCCCCSc1nnc(COc2cccc3cccnc23)o1` [4e, 2-(Hexylthio)-5-[(quinolin-8-yloxy)methyl]-1,3,4-oxadiazole], the pIC50 in series [1] (setting [5]) is less than 3.30; on α-glucosidase (setting [6]) it was 4.32; in series [2] (setting [7]), 3.68; in series [3] (setting [8]), less than 3.30; in series [4] (setting [9]), 4.12.

For `C=CCSc1nnc(COc2cccc3cccnc23)o1` [4f, 2-(Allylthio)-5-[(quinolin-8-yloxy)methyl]-1,3,4-oxadiazole], the pIC50 was less than 3.30 in series [1] (setting [5]); 4.46 at α-glucosidase (setting [6]); less than 3.30 in series [2] (setting [7]); less than 3.30 in series [3] (setting [8]); 4.14 in series [4] (setting [9]).

Regarding `CC(C)=CCSc1nnc(COc2cccc3cccnc23)o1` [4g, 2-[(3-Methylbut-2-en-1-yl)thio]-5-[(quinolin-8-yloxy)methyl]-1,3,4-oxadiazole], the pIC50 in series [1] (setting [5]) is less than 3.30; on α-glucosidase (setting [6]), 4.47; in series [2] (setting [7]) it was less than 3.30; in series [3] (setting [8]) it was less than 3.30; in series [4] (setting [9]) it was 4.06.

In the case of `BrCCSc1nnc(COc2cccc3cccnc23)o1` [4h, 2-[(2-Bromoethyl)thio]-5-[(quinolin-8-yloxy)methyl]-1,3,4-oxadiazole], the pIC50 is less than 3.30 in series [1] (setting [5]), less than 3.30 in series [3] (setting [8]) and 4.12 in series [4] (setting [9]).

The compound `Brc1ccc(CSc2nnc(COc3cccc4cccnc34)o2)cc1` [4m, 2-[(4-Bromobenzyl)thio]-5-[(quinolin-8-yloxy)methyl]-1,3,4-oxadiazole] had a melting point of 120.9 to 124.1 °C. The pIC50 in series [1] (setting [5]) is less than 3.30. The same compound had a pIC50 on α-glucosidase of 4.55. Also, the pIC50 in series [2] (setting [7]) is less than 3.30. The pIC50 in series [3] (setting [8]) was less than 3.30. In series [4] (setting [9]), this compound showed a pIC50 of 4.07.

In the case of `O=[N+]([O-])c1ccc(CSc2nnc(COc3cccc4cccnc34)o2)cc1` [4n, 2-[(4-Nitrobenzyl)thio]-5-[(quinolin-8-yloxy)methyl]-1,3,4-oxadiazole], the melting point fell in the range of 156.6 to 160.1 °C. In series [1] (setting [5]), the negative logarithm of the IC50 (pIC50) was less than 3.30. Moreover, at α-glucosidase (setting [6]), the pIC50 was 4.48. For the same compound, the pIC50 in series [2] (setting [7]) was less than 3.30. The compound further had a pIC50 in series [3] (setting [8]) of less than 3.30. The pIC50 in series [4] (setting [9]) is 4.11.

Take `Fc1cccc(CSc2nnc(COc3cccc4cccnc34)o2)c1` [4o, 2-[(3-Fluorobenzyl)thio]-5-[(quinolin-8-yloxy)methyl]-1,3,4-oxadiazole]: the pIC50 was less than 3.30 in series [1] (setting [5]); 4.31 at α-glucosidase (setting [6]); less than 3.30 in series [2] (setting [7]); less than 3.30 in series [3] (setting [8]); 4.11 in series [4] (setting [9]).

For the compound `Clc1cccc(CSc2nnc(COc3cccc4cccnc34)o2)c1` [4p, 2-[(3-Chlorobenzyl)thio]-5-[(quinolin-8-yloxy)methyl]-1,3,4-oxadiazole], the pIC50 in series [1] (setting [5]) is less than 3.30; on α-glucosidase (setting [6]) it was 4.53; in series [2] (setting [7]), less than 3.30; in series [3] (setting [8]), less than 3.30; in series [4] (setting [9]) it was 4.17.

Turning to `Brc1cccc(CSc2nnc(COc3cccc4cccnc34)o2)c1` [4q, 2-[(3-Bromobenzyl)thio]-5-[(quinolin-8-yloxy)methyl]-1,3,4-oxadiazole], the pIC50 in series [1] (setting [5]) is less than 3.30; at α-glucosidase (setting [6]) it was 4.53; in series [2] (setting [7]) it was 3.37; in series [3] (setting [8]), less than 3.30; in series [4] (setting [9]) it was 4.10.

Turning to `Fc1ccc(CSc2nnc(COc3cccc4cccnc34)o2)c(F)c1` [4r, 2-[(2,4-Difluorobenzyl)thio]-5-[(quinolin-8-yloxy)methyl]-1,3,4-oxadiazole], the melting point fell in the range of 98.7 to 105.2 °C. Further, in series [1] (setting [5]), the pIC50 is less than 3.30. Moreover, the pIC50 at α-glucosidase (setting [6]) is 4.55. Moreover, in series [2] (setting [7]), the pIC50 was less than 3.30. In series [3] (setting [8]), the pIC50 is less than 3.30. For the same compound, the pIC50 in series [4] (setting [9]) was 4.19.

`Fc1ccc(CSc2nnc(COc3cccc4cccnc34)o2)cc1F` [4s, 2-[(3,4-Difluorobenzyl)thio]-5-[(quinolin-8-yloxy)methyl]-1,3,4-oxadiazole] yielded a melting point of 98.8 to 101.2 °C. For the same compound, the pIC50 in series [1] (setting [5]) was less than 3.30. The pIC50 at α-glucosidase (setting [6]) was 4.45. For the same compound, in series [2] (setting [7]), the pIC50 was less than 3.30. Also, the pIC50 in series [3] (setting [8]) is less than 3.30. The compound also had a pIC50 in series [4] (setting [9]) of 4.06.

As to `Clc1ccc(CSc2nnc(COc3cccc4cccnc34)o2)c(Cl)c1` [4t, 2-[(2,4-Dichlorobenzyl)thio]-5-[(quinolin-8-yloxy)methyl]-1,3,4-oxadiazole], the melting point was in the range of 116.7 to 119.7 °C. Further, the pIC50 in series [1] (setting [5]) was less than 3.30. Moreover, the negative logarithm of the IC50 (pIC50) at α-glucosidase (setting [6]) was 4.56. Further, the pIC50 in series [2] (setting [7]) is less than 3.30. For the same compound, the pIC50 in series [3] (setting [8]) is less than 3.30. Besides, the pIC50 in series [4] (setting [9]) was 4.03.

As to `Oc1cccc2cccnc12` [8-HQ, 8-hydroxyquinoline, reference compound], the pIC50 is less than 3.30 in series [1]; 4.53 on α-glucosidase; less than 3.30 in series [2]; 3.74 in series [3]; 4.29 in series [4].

For `CCCCCCn1cc(CSc2nnc(COc3cccc4cccnc34)o2)nn1` [12b, 2-{[(1-Hexyl-1H-1,2,3-triazol-4-yl)methyl]thio}-5-[(quinolin-8-yloxy)methyl]-1,3,4-oxadiazole], the negative-log IC50 (pIC50) was less than 3.30 in series [1] (setting [5]); 4.43 at α-glucosidase (setting [6]); less than 3.30 in series [2] (setting [7]); less than 3.30 in series [3] (setting [8]); 4.10 in series [4] (setting [9]).

With `Fc1ccc(Cn2cc(CSc3nnc(COc4cccc5cccnc45)o3)nn2)cc1F` [12j, 2-{[(1-(3,4-Difluorobenzyl)-1H-1,2,3-triazol-4-yl)methyl]thio}-5-[(quinolin-8-yloxy)methyl]-1,3,4-oxadiazole], the pIC50 in series [1] (setting [5]) is less than 3.30; at α-glucosidase (setting [6]), 4.23; in series [2] (setting [7]), less than 3.30; in series [3] (setting [8]), less than 3.30; in series [4] (setting [9]), 3.99.

Regarding `O=C1O[C@H]([C@@H](O)CO)C(O)=C1O` [Ascorbic acid, reference compound], the negative-log IC50 (pIC50) in series [1] (setting [5]) was 3.99.

`O=C(O)c1cc(O)c(O)c(O)c1` [Gallic acid, reference compound]: the pIC50 in series [1] (setting [5]) was 4.75; in series [3] (setting [8]) it was 3.14; in series [4] (setting [9]) it was 4.57.

For the compound `Sc1nnc(COc2cccc3cccnc23)o1` [compound 3, 5-[(Quinolin-8-yloxy)methyl]-1,3,4-oxadiazole-2-thiol], the pIC50 in series [1] (setting [5]) is less than 3.30; at α-glucosidase (setting [6]), 4.46; in series [2] (setting [7]) it was less than 3.30; in series [3] (setting [8]), 3.33; in series [4] (setting [9]), 4.60.
